A short description of test [1]: In vivo acute food intake model (BioDAQ) in C57BL/6J male mice. The following applies: single subcutaneous dose 1 mg/kg, cumulative food intake. The procedure:
The MC4R system is central to appetite regulation and agonists are known inhibit food intake. In order to screen compounds in a relevant in vivo model, efficacy was assessed by determining the effect of the compound on reducing food intake acutely in mice.
All animal protocols were approved by an Institutional Animal Care and Use Committee and Ethical Review Committee of Novo Nordisk. Animals were housed according to Novo Nordisk rodent housing standards, and were given ad libitum access to food and water under controlled lighting (12 h:12 h light/dark cycle; lights off 11:00-23:00), temperature (23±2° C.) and relative humidity (50±20%) conditions. For each acute food intake study C57BL/6J male mice (25-30 grams body weight) were acclimated for two weeks to the appropriate light cycle and to single-housing (one mouse per cage) in cages linked to a BioDAQ automated food intake system (Research Diets Inc., New Brunswick, N.J. USA). The animals were also acclimated to new food (Research Diets 12450B, 10% kcal fat) during this time.
The BioDAQ is a computer automated scientific instrument for Biological Data Acquisition of food intake in rodents and measures food intake from each cage every 15 minutes. A total of 32 animals can be accommodated in the system per study, therefore, animals were randomized into 4 groups of n=8 for each study. […] Animals were fasted ˜4 hr prior to dosing. Vehicle (10 mM phosphate; 140 mM sodium chloride) or compound was dosed at a volume of 10 ml per kg subcutaneously approximately 20 minutes prior to the start of the dark cycle (compound chem no. and dosages are indicated in table 2 below). After dosing, food intake was recorded for approximately 24 hours.
The inhibitory effect of compounds on food intake was generally well-correlated with in vitro binding affinity on the human MC4 receptor and with plasma stability of the compound. Most studies were conducted as dose response studies with vehicle and the compound at 3 doses (0.3, 1 and 3 mg/kg). Some studies were done for the purpose of dose-range finding, while others were done to comparatively assess the effect of 3 compounds at the same dose. Maximal effects on food intake occurred within the first 1-5 hours post-dose. The comparative effect of compounds across studies on food intake was assessed by normalizing measurements as % effect on cumulative food intake after a single subcutaneous dose, relative to vehicle. Results are reported in Table 2 as % effect on food intake at 3 hours post dose.

Test [2] deals with T1, human MC4R (Homo sapiens, UniProt P32245).
T1 construct: expressed in transfected cells
T1 sequence (P32245 whole entry): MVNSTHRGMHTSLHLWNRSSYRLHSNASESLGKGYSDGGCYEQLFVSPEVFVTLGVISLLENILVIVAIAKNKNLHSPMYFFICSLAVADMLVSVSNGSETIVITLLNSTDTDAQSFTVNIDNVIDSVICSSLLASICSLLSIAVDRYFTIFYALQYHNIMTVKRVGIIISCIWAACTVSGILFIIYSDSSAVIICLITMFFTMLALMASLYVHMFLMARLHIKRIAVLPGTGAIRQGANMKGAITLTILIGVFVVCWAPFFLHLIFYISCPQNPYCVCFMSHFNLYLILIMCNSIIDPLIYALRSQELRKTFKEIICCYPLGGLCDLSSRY
Briefly: Functional cAMP assay (CisBio HTRF) in BHK cells expressing human MC4R. Format: cell-based. To be noted: for MC1R/MC4R cAMP EC50 ratio: MC1R cAMP EC50 divided by MC4R cAMP EC50. In a few lines:
(§1)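 Compound working solutions, 10-fold dilutions from 2 μM at twice final strength, in buffer containing 1 mM IBMX, were incubated 30 min at 25 °C with BHK cells stably carrying human MC4R or MC1R. Accumulated cAMP was then detected by competitive HTRF after 1 h at 25 °C and fitted by non-linear regression.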
For orientation: cAMP levels reflect the balance of adenylyl cyclase and phosphodiesterase activity.

Test [3] addresses T1, human MC4R. The test can be described thus: 125NDP-α-MSH competitive binding to membranes of BHK cells expressing human MC4 receptor (filtration assay). An outline of the steps: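 Displacement of ^125NDP-α-MSH (apx. […] final) was measured by filtration after 2 h at 25 °C, using diluted membranes of stably transfected BHK cells in pH 7.0 HEPES buffer. Compounds spanned 1 μM to 0.001 nM; binding curves were analysed by non-linear regression.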

The target of the next test is T2, human MC1R (Homo sapiens, UniProt Q01726).
T2 construct: expressed in transfected cells
T2 sequence (Q01726 whole entry): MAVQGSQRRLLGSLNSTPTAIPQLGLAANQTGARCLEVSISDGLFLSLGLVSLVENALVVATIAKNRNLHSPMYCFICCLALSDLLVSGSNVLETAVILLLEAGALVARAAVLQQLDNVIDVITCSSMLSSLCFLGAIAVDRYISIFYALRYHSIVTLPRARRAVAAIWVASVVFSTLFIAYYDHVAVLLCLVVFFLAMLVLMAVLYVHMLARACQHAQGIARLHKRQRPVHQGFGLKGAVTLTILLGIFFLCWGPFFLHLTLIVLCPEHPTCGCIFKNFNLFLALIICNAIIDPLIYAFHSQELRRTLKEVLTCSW
The test can be described thus: Functional cAMP assay (CisBio HTRF) in BHK cells expressing human MC1R. In kind it is cell-based. An outline of the steps:
as §1

The mark [4] stands for this setting: human MC4R, BHK cell membranes, 125NDP-α-MSH radioligand, read-out: MC4R binding Ki.
The mark [5] stands for this setting: BHK cells expressing human MC4R, '>' = highest dose used with no response, read-out: MC4R cAMP EC50.
[6] abbreviates: BHK cells expressing human MC1R, '>' = highest dose used with no response, read-out: MC1R cAMP EC50.

SMILES strings stand for the structures. pEC50, pKi: −log10 of the molar value. Like-named read-outs stand apart in the source and are kept apart here. Positions of bridges follow the written chain, without caps; N, C: chain ends. Non-standard residues stand in square brackets, D forms with d. Residues, ends and D or L forms follow the SMILES beside them. Ser(ΨH,HPro) = O=C(O)[C@@H]1COCN1; Hyp = O=C(O)[C@@H]1C[C@@H](O)CN1; hCit = NC(=O)NCCCC[C@H](N)C(=O)O; Orn = NCCC[C@H](N)C(=O)O; Thz = O=C(O)[C@@H]1CSCN1

As usually defined, the pKi is −log10 of the Ki, conventionally taken in molar units. What is called pEC50 is the negative decadic logarithm of the EC50, by convention in mol/L.

As for `NCCCC[C@@H]1NC(=O)[C@@H]2CSSC[C@H](NC(=O)[C@H](Cc3c[nH]c4ccccc34)NC(=O)[C@H](Cc3c[nH]cn3)NC(=O)[C@@H](Cc3ccccc3)NC(=O)[C@H](Cc3c[nH]cn3)NC1=O)C(=O)N[C@@H](CCCCN)C(=O)N[C@@H](Cc1c[nH]cn1)C(=O)N[C@H](Cc1ccccc1)C(=O)N[C@@H](Cc1c[nH]cn1)C(=O)N[C@@H](Cc1c[nH]c3ccccc13)C(=O)N2` [Chem. 52, c[c[Cys-Lys-His-D-Phe-His-Trp-Cys]- Lys-His-D-Phe-His-Trp]] (cyclo(CKH[dF]HWCKH[dF]HW); disulfide 1-7), in test [1], the “% Effect on food intake at 3 hours post dose, relative to vehicle” value (“% Effect on food intake … relative to vehicle” below) is reported as −66 ± 9%. For the same compound, at human MC4R [2], the “MC1R/MC4R cAMP EC50 ratio” value was 207.

Turning to `C[C@@H]1NC(=O)[C@@H]2CSSC[C@H](NC(=O)[C@H](Cc3c[nH]c4ccccc34)NC(=O)[C@H](CCCCN)NC(=O)[C@H](CCCCN)NC(=O)[C@H](CCCCN)NC1=O)C(=O)N1C[C@H](O)C[C@H]1C(=O)N[C@@H](Cc1c[nH]cn1)C(=O)N[C@H](Cc1ccccc1)C(=O)N[C@@H](Cc1c[nH]cn1)C(=O)N[C@@H](Cc1c[nH]c3ccccc13)C(=O)N2` [Chem. 70, c[c[Cys-Hyp-His-D-Phe-His-Trp-Cys]- Ala-Lys-Lys-Lys-Trp]] (cyclo(AKKKWC[Hyp]H[dF]HWC); disulfide 6-12), the negative logarithm of the Ki (pKi) on human MC4R [3] (setting [4]) was 10.15. For the same compound, the “% Effect on food intake … relative to vehicle” value in test [1] is given as −39 ± 10%. In addition, the negative logarithm of the EC50 (pEC50) at human MC4R [2] (setting [5]) is 9.42. In addition, the “MC1R/MC4R cAMP EC50 ratio” value at human MC4R [2] worked out at 199.

With `C[C@@H]1NC(=O)[C@@H]2CSSC[C@H](NC(=O)[C@H](Cc3c[nH]c4ccccc34)NC(=O)[C@H](CCCCN)NC(=O)[C@H](CCCCN)NC(=O)[C@H](CCCCN)NC1=O)C(=O)N1CCC[C@@H]1C(=O)N[C@@H](Cc1c[nH]cn1)C(=O)N[C@H](Cc1ccccc1)C(=O)N[C@@H](Cc1c[nH]cn1)C(=O)N[C@@H](Cc1c[nH]c3ccccc13)C(=O)N2` [Chem. 98, c[c[Cys-D-Pro-His-D-Phe-His-Trp- Cys]-Ala-Lys-Lys-Lys-Trp]] (cyclo(AKKKWC[dP]H[dF]HWC); disulfide 6-12), the pKi at human MC4R [3] (setting [4]) is 9.22. The negative-log EC50 (pEC50) on human MC1R (setting [6]) was less than 7.26. Besides, the “MC1R/MC4R cAMP EC50 ratio” value at human MC4R [2] was more than 20.

Regarding `C[C@@H]1NC(=O)[C@@H]2CSSC[C@H](NC(=O)[C@H](CCCNC(=N)N)NC(=O)[C@H](CCCCN)NC(=O)[C@H](CCCCN)NC(=O)[C@H](CCCCN)NC1=O)C(=O)N1CCC[C@H]1C(=O)N[C@@H](Cc1c[nH]cn1)C(=O)N[C@H](Cc1ccccc1)C(=O)N[C@@H](CCCCNC(N)=O)C(=O)N[C@@H](Cc1c[nH]c3ccccc13)C(=O)N2` [Chem. 99, c[c[Cys-Pro-His-D-Phe-Cit-Trp-Cys]- Ala-Lys-Lys-Lys-Arg]] (cyclo(AKKKRCPH[dF][hCit]WC); disulfide 6-12), the pKi on human MC4R [3] (setting [4]) is 10.00. Besides, the pEC50 at human MC1R (setting [6]) was 8.28; on human MC4R [2] (setting [5]) it was 9.41. Also, on human MC4R [2], the “MC1R/MC4R cAMP EC50 ratio” value came to 14.

On to `C[C@@H]1NC(=O)[C@@H]2CSSC[C@H](NC(=O)[C@H](Cc3c[nH]c4ccccc34)NC(=O)[C@H](CCCNC(=N)N)NC(=O)[C@@H](Cc3ccccc3)NC(=O)[C@H](Cc3c[nH]cn3)NC1=O)C(=O)N[C@@H](CCCCN)C(=O)N[C@@H](CCCCN)C(=O)N[C@@H](CCCCN)C(=O)N[C@@H](CCCNC(=N)N)C(=O)N2` [Chem. 101, c[c[Cys-Ala-His-D-Phe-Arg-Trp-Cys]- Lys-Lys-Lys-Arg]] (cyclo(AH[dF]RWCKKKRC); disulfide 6-11), for which the negative-log Ki (pKi) on human MC4R [3] (setting [4]) is 10.30. Besides, the negative logarithm of the EC50 (pEC50) at human MC1R (setting [6]) was 9.72; at human MC4R [2] (setting [5]) it was 10.40. Also, the “MC1R/MC4R cAMP EC50 ratio” value on human MC4R [2] is recorded as 5.

On human MC4R [3], `C[C@@H]1NC(=O)[C@H](CCC(=O)O)NC(=O)[C@H](CCC(=O)O)NC(=O)[C@H](C)NC(=O)[C@@H]2CSSC[C@H](NC(=O)[C@H](Cc3c[nH]c4ccccc34)NC1=O)C(=O)N[C@@H](C)C(=O)N[C@@H](Cc1c[nH]cn1)C(=O)N[C@H](Cc1ccccc1)C(=O)N[C@@H](CCCNC(=N)N)C(=O)N[C@@H](Cc1c[nH]c3ccccc13)C(=O)N2` [Chem. 102, c[c[Cys-Ala-His-D-Phe-Arg-Trp-Cys]- Ala-Glu-Glu-Ala-Trp]] (cyclo(AEEAWCAH[dF]RWC); disulfide 6-12) had a pKi of 8.00. The pEC50 at human MC1R is 7.84. Moreover, on human MC4R [2], the negative logarithm of the EC50 (pEC50) is 9.31 and the “MC1R/MC4R cAMP EC50 ratio” value is recorded as 29.

With `C[C@@H]1NC(=O)[C@@H]2CSSC[C@H](NC(=O)[C@H](Cc3c[nH]c4ccccc34)NC(=O)[C@H](CCCCN)NC(=O)[C@H](CCCCN)NC(=O)[C@H](CCCCN)NC1=O)C(=O)N1COC[C@H]1C(=O)N[C@@H](Cc1c[nH]cn1)C(=O)N[C@H](Cc1ccccc1)C(=O)N[C@@H](Cc1c[nH]cn1)C(=O)N[C@@H](Cc1c[nH]c3ccccc13)C(=O)N2` [Chem. 103, c[c[Cys-OXA-His-D-Phe-His-Trp- Cys]-Ala-Lys-Lys-Lys-Trp]] (cyclo(AKKKWC[Ser(ΨH,HPro)]H[dF]HWC); disulfide 6-12), the pKi on human MC4R [3] (setting [4]) was 10.22. Besides, the results for the pEC50 on human MC1R (setting [6]) and at human MC4R [2] (setting [5]) were less than 7.15 and 10.30, respectively. Moreover, the “MC1R/MC4R cAMP EC50 ratio” value on human MC4R [2] is more than 1400.

The compound `C[C@@H]1NC(=O)[C@H](C)NC(=O)[C@@H]2CSSC[C@H](NC(=O)[C@H](Cc3c[nH]c4ccccc34)NC(=O)[C@H](C)NC(=O)[C@H](CCCCN)NC1=O)C(=O)N1CSC[C@H]1C(=O)N[C@@H](Cc1c[nH]cn1)C(=O)N[C@H](Cc1ccccc1)C(=O)N[C@@H](Cc1c[nH]cn1)C(=O)N[C@@H](Cc1c[nH]c3ccccc13)C(=O)N2` [Chem. 109, c[c[Cys-THAZ-His-D-Phe-His-Trp- Cys]-Ala-Ala-Lys-Ala-Trp]] (cyclo(AAKAWC[Thz]H[dF]HWC); disulfide 6-12) gave a pKi on human MC4R [3] of 9.52. At human MC1R, this compound had a pEC50 of less than 8.15. For the same compound, on human MC4R [2], the negative-log EC50 (pEC50) is 9.82 and the “MC1R/MC4R cAMP EC50 ratio” value is listed as more than 47.

For `C[C@@H]1NC(=O)[C@@H]2CSSC[C@H](NC(=O)[C@H](Cc3c[nH]c4ccccc34)NC(=O)[C@H](CCCNC(=N)N)NC(=O)[C@@H](Cc3ccccc3)NC(=O)[C@H](Cc3c[nH]cn3)NC1=O)C(=O)N1CCC[C@H]1C(=O)N1CCC[C@H]1C(=O)N[C@@H](CCC(=O)O)C(=O)N[C@@H](CCCNC(=N)N)C(=O)N[C@@H](Cc1c[nH]c3ccccc13)C(=O)N2` [Chem. 112, c[c[Cys-Ala-His-D-Phe-Arg-Trp-Cys]- Pro-Pro-Glu-Arg-Trp]] (cyclo(AH[dF]RWCPPERWC); disulfide 6-12), the pKi on human MC4R [3] (setting [4]) was 8.92. Besides, the pEC50 at human MC1R (setting [6]) is 7.52; at human MC4R [2] (setting [5]), 9.72. The “MC1R/MC4R cAMP EC50 ratio” value at human MC4R [2] turned out to be 159.

Turning to `C[C@@H]1NC(=O)[C@@H]2CSSC[C@H](NC(=O)[C@H](CCCNC(=N)N)NC(=O)[C@H](CCCN)NC(=O)[C@H](CCC(=O)O)NC(=O)[C@H](Cc3c[nH]cn3)NC1=O)C(=O)N1CSC[C@H]1C(=O)N[C@@H](Cc1c[nH]cn1)C(=O)N[C@H](Cc1ccccc1)C(=O)N[C@@H](Cc1c[nH]cn1)C(=O)N[C@@H](Cc1c[nH]c3ccccc13)C(=O)N2` [Chem. 120, c[c[Cys-THAZ-His-D-Phe-His-Trp- Cys]-Ala-His-Glu-Orn-Arg]] (cyclo(AHE[Orn]RC[Thz]H[dF]HWC); disulfide 6-12), the “% Effect on food intake … relative to vehicle” value in test [1] is −28 ± 12%. On human MC4R [2], the pEC50 is 10.10 and the “MC1R/MC4R cAMP EC50 ratio” value worked out at 3673.
